Assay results reported in ChEMBL document CHEMBL1201862, “PubChem BioAssay data set” (2004).
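Five concentrations, 48 hours, 96-well plates. GI50 = concentration required for 50% inhibition of growth.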 The source made the active and inactive calls. No stated cut-off is given here; in the data, active = GI50 up to about 1.1 µM and inactive = higher.

Assays:
Assay in all cases: NCI-60 cell line screen, 48 h
[1] = test system: CCRF-CEM
[2] = test system: COLO 205
[3] = test system: DU-145
[4] = test system: EKVX
[5] = test system: HCC 2998
[6] = test system: HCT-116
[7] = test system: HL-60
[8] = test system: HT-29
[9] = test system: IGROV-1
[10] = test system: KM12
[11] = test system: MDA-MB-231
[12] = test system: NCI-H522
[13] = test system: NCI/ADR-RES
[14] = test system: OVCAR-3
[15] = test system: SF-539
[16] = test system: SN12C
[17] = test system: SW-620
[18] = test system: T47D
[19] = test system: TK-10
[20] = test system: U-251

With `Cc1nc2sc(CCl)nn2c(=O)c1Cl` the GI50 [1] was 3.61 µM (inactive), the GI50 [2] was 16.7 µM (inactive) and the GI50 [3] was 16.1 µM (inactive). The GI50 [4] was 11.1 µM (inactive), the GI50 [5] was 22 µM (inactive) and the GI50 [6] was 13.4 µM (inactive). For the same molecule, the GI50 [7] was 13.1 µM (inactive), the GI50 [8] was 12.9 µM (inactive) and the GI50 [9] was 15 µM (inactive). The GI50 [10] was 11.9 µM (inactive), the GI50 [11] was 20.5 µM (inactive) and the GI50 [12] was 3.15 µM (inactive). For the same molecule, the GI50 [13] was 18.8 µM (inactive), the GI50 [14] was 15.9 µM (inactive) and the GI50 [15] was 16.7 µM (inactive). For the same molecule, the GI50 [16] was 12.3 µM (inactive), the GI50 [17] was 10.4 µM (inactive) and the GI50 [18] was 13.1 µM (inactive). For the same molecule, the GI50 [19] was 12.5 µM (inactive) and the GI50 [20] was 6.08 µM (inactive).

For `COc1ccc(-n2nnc3c(C#N)c(-c4ccccc4)c(C)n3c2=O)cc1`, the GI50 [1] was 8.39 µM (inactive), the GI50 [2] was 33.7 µM (inactive) and the GI50 [3] was 74.8 µM (inactive). The GI50 [4] was 62.2 µM (inactive), the GI50 [5] was 72.6 µM (inactive) and the GI50 [6] was 43.2 µM (inactive). For the same molecule, the GI50 [7] was 3.69 µM (inactive), the GI50 [8] was 43.9 µM (inactive) and the GI50 [9] was 24 µM (inactive). For the same molecule, the GI50 [10] was 48.9 µM (inactive), the GI50 [11] was 25.2 µM (inactive) and the GI50 [12] was 22.6 µM (inactive). The GI50 [13] was 66.2 µM (inactive), the GI50 [14] was 28.2 µM (inactive) and the GI50 [15] was 31.7 µM (inactive). For the same molecule, the GI50 [16] was 62.5 µM (inactive), the GI50 [17] was 27.2 µM (inactive) and the GI50 [18] was 49.5 µM (inactive). The GI50 [19] was 84.7 µM (inactive) and the GI50 [20] was 32.7 µM (inactive).

For `CC(=O)NNc1nc(C)c(C(=O)NNC(=O)C(=O)Nc2nc3ccc([N+](=O)[O-])cc3s2)s1`, the GI50 [1] was 22 µM (inactive), the GI50 [2] was > 81.1 µM (inactive) and the GI50 [3] was 70.1 µM (inactive). The GI50 [4] was 30.7 µM (inactive), the GI50 [5] was 42.1 µM (inactive) and the GI50 [6] was > 62.5 µM (inactive). The GI50 [7] was 36.8 µM (inactive), the GI50 [8] was 54.7 µM (inactive) and the GI50 [9] was 36.9 µM (inactive). The GI50 [10] was 33.9 µM (inactive), the GI50 [11] was 18.7 µM (inactive) and the GI50 [12] was 18.7 µM (inactive). The GI50 [13] was 53.5 µM (inactive), the GI50 [14] was 15.3 µM (inactive) and the GI50 [15] was 44.7 µM (inactive). The GI50 [16] was 68.2 µM (inactive), the GI50 [17] was > 65.9 µM (inactive) and the GI50 [18] was 22.6 µM (inactive). The GI50 [19] was 50.4 µM (inactive) and the GI50 [20] was 47.5 µM (inactive).

`O=C(CNC(=O)OCc1ccccc1)NCCCCC(NC(=O)OCc1ccccc1)C(=O)O` (stereo not given) was tested, and the GI50 [1] was > 100 µM (inactive), the GI50 [2] was > 100 µM (inactive) and the GI50 [3] was > 100 µM (inactive). The GI50 [4] was > 100 µM (inactive), the GI50 [5] was > 100 µM (inactive) and the GI50 [6] was > 100 µM (inactive). For the same molecule, the GI50 [7] was > 100 µM (inactive), the GI50 [8] was > 100 µM (inactive) and the GI50 [9] was > 100 µM (inactive). For the same molecule, the GI50 [10] was > 100 µM (inactive), the GI50 [11] was > 100 µM (inactive) and the GI50 [12] was > 100 µM (inactive). For the same molecule, the GI50 [13] was > 100 µM (inactive), the GI50 [14] was > 100 µM (inactive) and the GI50 [15] was > 100 µM (inactive). For the same molecule, the GI50 [16] was > 100 µM (inactive), the GI50 [17] was > 100 µM (inactive) and the GI50 [18] was > 100 µM (inactive). For the same molecule, the GI50 [19] was > 100 µM (inactive) and the GI50 [20] was > 100 µM (inactive).

For `CCN(CC)C(=S)N/N=C/c1cc([N+](=O)[O-])ccc1O`, the GI50 [1] was 1.26 µM (inactive), the GI50 [2] was 3.4 µM (inactive) and the GI50 [3] was 4.56 µM (inactive). The GI50 [4] was 4.56 µM (inactive), the GI50 [5] was 8.53 µM (inactive) and the GI50 [6] was 2.75 µM (inactive). For the same molecule, the GI50 [7] was 1.69 µM (inactive), the GI50 [8] was 5.45 µM (inactive) and the GI50 [9] was 3.65 µM (inactive). The GI50 [10] was 4.07 µM (inactive), the GI50 [11] was 8.18 µM (inactive) and the GI50 [12] was 5.07 µM (inactive). The GI50 [13] was 3.01 µM (inactive), the GI50 [14] was 0.0528 µM (active) and the GI50 [15] was 6.15 µM (inactive). For the same molecule, the GI50 [16] was 4.88 µM (inactive), the GI50 [17] was 6.35 µM (inactive) and the GI50 [18] was 5.13 µM (inactive). The GI50 [19] was 8.87 µM (inactive) and the GI50 [20] was 4.24 µM (inactive).

In the case of `CS(=O)(=O)OCCCCOS(=O)(=O)CF`, the GI50 [1] is reported as 52.4 µM (inactive), the GI50 [2] is reported as > 100 µM (inactive) and the GI50 [3] is reported as > 100 µM (inactive). The GI50 [4] was > 100 µM (inactive), the GI50 [5] was > 100 µM (inactive) and the GI50 [6] was > 100 µM (inactive). The GI50 [7] was 33.5 µM (inactive), the GI50 [8] was > 100 µM (inactive) and the GI50 [9] was > 91.4 µM (inactive). For the same molecule, the GI50 [10] was > 100 µM (inactive), the GI50 [11] was > 100 µM (inactive) and the GI50 [12] was > 100 µM (inactive). For the same molecule, the GI50 [13] was > 100 µM (inactive), the GI50 [14] was > 100 µM (inactive) and the GI50 [15] was > 100 µM (inactive). The GI50 [16] was > 100 µM (inactive), the GI50 [17] was > 100 µM (inactive) and the GI50 [18] was > 100 µM (inactive). For the same molecule, the GI50 [19] was > 100 µM (inactive) and the GI50 [20] was > 100 µM (inactive).

In the case of `Cc1cccc(NC(=O)O/N=C(\Cl)C(C)C)c1`, the GI50 [1] is reported as 0.847 µM (active), the GI50 [2] is reported as 2.01 µM (inactive) and the GI50 [3] is reported as 18.6 µM (inactive). For the same molecule, the GI50 [4] was 6.03 µM (inactive), the GI50 [5] was 19.1 µM (inactive) and the GI50 [6] was 3.37 µM (inactive). For the same molecule, the GI50 [7] was 1.94 µM (inactive), the GI50 [8] was 10.4 µM (inactive) and the GI50 [9] was 17.5 µM (inactive). The GI50 [10] was 19.4 µM (inactive), the GI50 [11] was 17.9 µM (inactive) and the GI50 [12] was 1.54 µM (inactive). The GI50 [13] was 21.3 µM (inactive), the GI50 [14] was 6.15 µM (inactive) and the GI50 [15] was 6.21 µM (inactive). For the same molecule, the GI50 [16] was 3.37 µM (inactive), the GI50 [17] was 2.19 µM (inactive) and the GI50 [18] was 6.82 µM (inactive). The GI50 [19] was 14 µM (inactive) and the GI50 [20] was 20.7 µM (inactive).

`O=c1[nH]nc(Cc2ccccc2)n1/N=C/c1cccnc1` was tested, and the GI50 [1] was > 100 µM (inactive), the GI50 [2] was > 100 µM (inactive) and the GI50 [3] was > 100 µM (inactive). For the same molecule, the GI50 [4] was > 100 µM (inactive), the GI50 [5] was > 100 µM (inactive) and the GI50 [6] was > 100 µM (inactive). The GI50 [7] was > 100 µM (inactive), the GI50 [8] was > 100 µM (inactive) and the GI50 [9] was > 100 µM (inactive). The GI50 [10] was 27.3 µM (inactive), the GI50 [11] was > 100 µM (inactive) and the GI50 [12] was > 100 µM (inactive). The GI50 [13] was > 100 µM (inactive), the GI50 [14] was > 100 µM (inactive) and the GI50 [15] was > 100 µM (inactive). For the same molecule, the GI50 [16] was > 100 µM (inactive), the GI50 [17] was > 100 µM (inactive) and the GI50 [18] was > 100 µM (inactive). For the same molecule, the GI50 [19] was > 100 µM (inactive) and the GI50 [20] was > 100 µM (inactive).

For `C=C(C(=O)O)[C@@H]1C[C@@H](OC(C)=O)[C@]2(C)CC/C=C(\C)CCC[C@H](C)[C@H](O)[C@@H]1O2`, the GI50 [1] was 22.4 µM (inactive), the GI50 [2] was 33.1 µM (inactive) and the GI50 [3] was 83.9 µM (inactive). The GI50 [4] was 45.5 µM (inactive), the GI50 [5] was > 100 µM (inactive) and the GI50 [6] was 52.8 µM (inactive). For the same molecule, the GI50 [7] was 22.3 µM (inactive), the GI50 [8] was 47.3 µM (inactive) and the GI50 [9] was 36.8 µM (inactive). For the same molecule, the GI50 [10] was 41.9 µM (inactive), the GI50 [11] was > 100 µM (inactive) and the GI50 [12] was 18 µM (inactive). The GI50 [13] was 33.3 µM (inactive), the GI50 [14] was 37.4 µM (inactive) and the GI50 [15] was 18 µM (inactive). The GI50 [16] was 60.4 µM (inactive), the GI50 [17] was 40.1 µM (inactive) and the GI50 [18] was > 100 µM (inactive). The GI50 [19] was 57.4 µM (inactive) and the GI50 [20] was > 100 µM (inactive).

`CCC(C)C1=C(O)[N+]2([O-])Oc3ccc(-c4c(O)c(O)c(-c5ccc(O)cc5)c(OC(C)=O)c4OC(C)=O)cc3OC2(C(C)CC)C(=O)N1O` (stereo not given) was tested, and the GI50 [1] was 1.88 µM (inactive), the GI50 [2] was > 50 µM (inactive) and the GI50 [3] was > 50 µM (inactive). For the same molecule, the GI50 [4] was 39.5 µM (inactive), the GI50 [5] was 0.005 µM (active) and the GI50 [6] was 18.2 µM (inactive). For the same molecule, the GI50 [7] was > 50 µM (inactive), the GI50 [8] was > 50 µM (inactive) and the GI50 [9] was > 50 µM (inactive). For the same molecule, the GI50 [10] was > 50 µM (inactive), the GI50 [11] was > 50 µM (inactive) and the GI50 [12] was 23.5 µM (inactive). The GI50 [13] was > 50 µM (inactive), the GI50 [14] was > 50 µM (inactive) and the GI50 [15] was > 50 µM (inactive). The GI50 [16] was > 50 µM (inactive), the GI50 [17] was > 50 µM (inactive) and the GI50 [18] was > 50 µM (inactive). For the same molecule, the GI50 [19] was > 50 µM (inactive) and the GI50 [20] was > 50 µM (inactive).
